Measurements from publication PMC12965331 (Biochemistry, 2025).

Assays:
[1] = biological target: HNMT (Homo sapiens, UniProt P50135); experiment: HNMT specificity screen; type: biochemical
[2] = biological target: RNase H (Escherichia coli, UniProt P0A7Y4)
[3] = biological target: NSP10–14 ExoN (Severe acute respiratory syndrome coronavirus 2, UniProt P0DTD1); type: biochemical, SARS-CoV-2
[4] = test system: NSP14 ExoN; conditions: cited from earlier work

RNase H, sequence (P0A7Y4 whole entry): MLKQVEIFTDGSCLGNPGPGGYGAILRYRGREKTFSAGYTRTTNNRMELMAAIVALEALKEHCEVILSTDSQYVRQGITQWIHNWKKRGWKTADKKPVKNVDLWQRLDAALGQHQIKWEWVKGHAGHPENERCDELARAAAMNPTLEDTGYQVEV
HNMT, sequence (P50135 whole entry): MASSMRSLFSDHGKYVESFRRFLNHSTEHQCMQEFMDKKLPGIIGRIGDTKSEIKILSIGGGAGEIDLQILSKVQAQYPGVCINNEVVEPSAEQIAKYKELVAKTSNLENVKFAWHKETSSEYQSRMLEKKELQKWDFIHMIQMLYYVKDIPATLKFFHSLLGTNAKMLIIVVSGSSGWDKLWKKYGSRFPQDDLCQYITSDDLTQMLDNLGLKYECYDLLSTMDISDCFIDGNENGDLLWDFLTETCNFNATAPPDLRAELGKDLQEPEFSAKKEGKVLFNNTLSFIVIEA

| SMILES | activity against HNMT (off-target) [1] | activity against RNase H (off-target) [2] | potency difference between NSP14 ExoN and RNase H [2] | effect on VMAX, ExoN RNA substrate [3] | mechanism of inhibition with respect to ExoN RNA substrate [3] | change in KM for ExoN RNA substrate ([3]; concentrations below 2 μM of compound) | inhibition of NSP14 ExoN activity, affinity [4] |
| --- | --- | --- | --- | --- | --- | --- | --- |
| CC(=O)N1CCN(c2ccc(C(=O)N3CCN(Cc4ccccc4)CC3)nn2)C(=O)C1 [NCGC00537446] | some activity | some activity | greater than 10 fold | more clearly influenced | noncompetitive | no significant change |  |
| O=C1C=C2C(=CCOC2O)O1 (stereo not shown) [Patulin] |  |  |  |  |  |  | micromolar affinity |
